Measured values taken from patent US8263651B2, “Use of cis-epoxyeicosatrienoic acids and inhibitors of soluble epoxide hydrolase to treat conditions mediated by PBR, CB2, and NK2 receptors” (The Regents of the University of California, priority 2006, dated 2012).
“Also recorded” adds a separate entry of the source. Like-named read-outs stand apart in the source and are kept apart here.

Tests used:
BZD (peripheral) = target: T1, BZD (peripheral) (Rattus norvegicus, UniProt P16257); experiment: radio-ligand binding competition, peripheral benzodiazepine receptor ([3H]PK 11195); details: for IC50: displacement of [3H]PK 11195; for inhibition of binding of [3H]PK 11195 (FIG. 1): increasing concentrations; for % Inhibition of Control Specific Binding: second round, individual EET isomers, 3 μM
T1 construct: containing 0.2 mg of cardiac membrane protein and the radioactive ligand; tissue CEREP (contract assay); host or cells: rat heart ventricular membranes

Cannabinoid CB2 = target: T2, Cannabinoid CB2 (Homo sapiens, UniProt P34972); experiment: radio-ligand binding competition, CB2 ([3H]WIN 55212-2); details: for % Inhibition of Control Specific Binding: individual EET isomers, 3 μM
T2 construct: host or cells: CHO cells
T2 sequence (P34972 whole entry): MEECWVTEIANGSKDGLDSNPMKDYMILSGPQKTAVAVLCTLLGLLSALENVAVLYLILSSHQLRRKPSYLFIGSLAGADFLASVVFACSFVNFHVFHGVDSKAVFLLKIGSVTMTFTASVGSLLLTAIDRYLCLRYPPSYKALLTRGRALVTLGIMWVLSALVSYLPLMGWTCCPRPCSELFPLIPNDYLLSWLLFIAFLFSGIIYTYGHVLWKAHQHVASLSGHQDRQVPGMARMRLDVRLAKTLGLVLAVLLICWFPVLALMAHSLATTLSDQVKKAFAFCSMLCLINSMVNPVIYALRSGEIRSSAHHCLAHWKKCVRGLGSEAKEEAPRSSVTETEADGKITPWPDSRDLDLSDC

Dopamine D3 = Dopamine D3 (Homo sapiens, UniProt P35462); experiment: radio-ligand binding competition, D3; details: for IC50: displacement of high affinity ligand; for % Inhibition of Control Specific Binding: second round, individual EET isomers, 3 μM
Sequence of Dopamine D3 (P35462 whole entry): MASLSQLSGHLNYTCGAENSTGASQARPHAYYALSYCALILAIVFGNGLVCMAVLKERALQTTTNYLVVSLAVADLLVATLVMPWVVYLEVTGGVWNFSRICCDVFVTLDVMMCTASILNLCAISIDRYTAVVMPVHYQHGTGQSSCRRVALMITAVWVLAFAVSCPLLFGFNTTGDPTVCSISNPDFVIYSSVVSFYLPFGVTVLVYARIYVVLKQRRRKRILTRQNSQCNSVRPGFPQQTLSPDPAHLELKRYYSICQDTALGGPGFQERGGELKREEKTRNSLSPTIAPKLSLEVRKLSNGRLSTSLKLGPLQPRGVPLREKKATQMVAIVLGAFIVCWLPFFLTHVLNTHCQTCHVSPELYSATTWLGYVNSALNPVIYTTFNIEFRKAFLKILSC

Neurokinin NK2 = target: T3, Neurokinin NK2 (Homo sapiens, UniProt P21452); experiment: radio-ligand binding competition, NK2; details: for IC50: displacement of high affinity ligand; for % Inhibition of Control Specific Binding: second round, individual EET isomers, 3 μM
T3 sequence (P21452 1-398): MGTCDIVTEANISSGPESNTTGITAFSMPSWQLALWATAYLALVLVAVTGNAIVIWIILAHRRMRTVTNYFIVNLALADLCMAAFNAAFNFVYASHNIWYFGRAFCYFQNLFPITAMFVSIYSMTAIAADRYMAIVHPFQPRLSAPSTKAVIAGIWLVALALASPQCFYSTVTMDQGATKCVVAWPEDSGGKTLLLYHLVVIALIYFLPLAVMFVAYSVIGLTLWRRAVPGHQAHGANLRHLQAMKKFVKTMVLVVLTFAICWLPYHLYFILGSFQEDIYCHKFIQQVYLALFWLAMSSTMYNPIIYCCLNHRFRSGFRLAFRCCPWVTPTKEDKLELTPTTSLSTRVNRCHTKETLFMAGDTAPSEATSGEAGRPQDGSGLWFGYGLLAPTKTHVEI

[1] = tested on: LPS-elicited thermal hyperalgesia; experiment: LPS-elicited inflammatory pain model, hindpaw thermal withdrawal latency; assay type: in vivo, rat; details: for effect on response to LPS administration: agent + LPS, no sEHI (FIG. 2D); for effect on baseline TWL response: agent by itself, no LPS (FIG. 2C); for effect on the antihyperalgesic action of sEHI AEPU: topical, with LPS + AEPU (FIGS. 2A, 2B, 4); for effect on sEHI-elicited analgesia: with LPS + sEHI compound 950, two hours post LPS (FIG. 5)
Procedure: Inflammatory pain model: The nociception response was measured using the hind paw withdrawal latency test modified after Hargreaves at al., Pain, 32(1):77-88 (1988). Male Sprague-Dowley rats weighing 240-260 g, are individually housed at UC Davis Animal Resource Facility under standard conditions with free access to food and water, and maintained for at least 1 week before the experiments. On the day of the experiments, the animals' basal response is measured and then compounds are topically administered preceding an injection with 10 ug of endotoxin (1Lipopolysaccharide, “LPS”, Sigma-Aldrich, St. Louis, Mo.). Nociceptive response is then measured at 120 minutes post-LPS injection. Compounds are formulated by dissolving them in ethanol and mixing with cream in a ratio of 1:8. Eight animals per group are used. A dose response curve is obtained by administering increasing concentrations of EETs and measuring nociceptive response.
Behavioral nociceptive testing was conducted by assessing thermal hindpaw withdrawal latencies (“TWL”) using a commercial Hargreaves (Hargreaves et al., A new and sensitive method for measuring thermal nociception in cutaneous hyperalgesia. Pain 32:77-88 (1988)) apparatus (IITC Life Science Inc., Woodland Hills, Calif.). Male Sprague-Dawley rats weighing 240-250 g, were individually housed at the UC Davis Animal Resource Facility under standard conditions with free access to food and water, and maintained for at least 1 week before the experiments. On the day of the experiment, the rats were transferred to a quiet room, acclimated for 1 h, and their baseline responses measured. In pilot experiments, the intensity of the thermal stimulus was set to produce a baseline TWL of 7-8 s. Following baseline measurements, rats were first treated with 200 μl of vehicle or compound-formulated cream by topical application to one hind paw. Compounds (including sEHI, steroid synthesis inhibitors, steroid receptor antagonists, and cannabinoid receptor antagonists, as shown in the Figure legends) were formulated by dissolving them in ethanol and mixing with Vanicream® (Pharmaceutical Specialties, Inc., Rochester, Minn.) in a ratio of 1:9. The cream was thoroughly massaged across the entire hind paw surface over a 2 min period. After 1.5 hours rats were treated with 200 μl of sEHI formulated cream. Within 10 min of sEHI application, lipopolysaccharide (“LPS”, 10 μg in 50 μl 0.9% NaCl) was injected subcutaneously into the plantar surface of the treated paw. Immediately following LPS injection, animals were placed in acrylic chambers on a glass platform maintained at a temperature of 30±1° C. for TWL-measurement. During TWL measurement, a beam of radiant heat was focused onto the mid-portion of the plantar surface of the treated hind paw until the rat moved its stimulated hindpaw abruptly away from the heat stimulus. The duration of heat application necessary to elicit a withdrawal was designated as TWL. A maximum stimulus duration of 22 s was imposed to prevent tissue damage. Five TWL measurements were taken at 3-4 min interstimulus intervals for each of the time points following treatment. The three median TWLs were averaged for each animal at each time point.

[2] = metabolomic analysis of oxylipids and prostaglandins in LPS-treated animals; assay type: in vivo
Text: (In FIG. 3A, the bar presenting the results for the metabolite 6-keto-PGF1a for one group of animals exceeded the scale, as shown by a break in the bar and the statement of the result in ng/mL about the bar). FIG. 3A. […] FIG. 3C. […] All three graphs: bars with lines rising from left to right (e.g., in FIG. 3A, the “sum of DHETs”) present results for untreated (naïve) animals, bars with lines falling from left to right present results for animals treated with LPS, bars with cross-hatching present results for the animals treated with LPS and the sEH inhibitor AEPU, and bars with horizontal lines present the results for animals treated with LPS, AEPU, and the steroid synthesis inhibitor aminogluthetimide (“AGL”). The metabolites chosen for study show the effect on different pathways by which arachidonic acid is metabolized. ΣEpOMEs and ΣDiHOMEs are indicators of the P450 pathway, HETEs are an indicator of how much arachidonic acid is going through the 5-lipoxygenase pathway and 6-keto-PGF1a, and PGE2 are indicators of the arachidonic acid metabolized by the cyclooxygenase pathway. 6-keto-PGF1a and TXB2 are stable metabolites of PGI2 and thromboxane A2 which have been implicated in increased risk for stroke and heart attack. HODEs are lipoxygenase-derived fatty acid metabolites.
See, FIG. 3. This means that inhibition of sEH is not only effective against inflammatory pain but also effective in other types of pain that are not necessarily modulated by prostanoid levels. Indeed, non-inflammatory types of pain are known to be not well addressed by COX inhibitors. The levels of EETs and DHETs, however, correlated well with the nociceptive end result.

CB2 over CB1 = details: cited from earlier work
[3] = tested on: CAR induced local thermal hyperalgesia; experiment: carrageenan-induced thermal hyperalgesia model; assay type: in vivo; details: topical, 20 hours post 2% carrageenan
Procedure: Using a second distinct inflammatory model, hyperalgesia was induced by intraplantar injection of 2% carrageenan (CAR) and sEH inhibitors were again delivered topically 20 hours post CAR injection.

[4] = displacement of high affinity ligand, read-out: IC50, CB2
[5] = AGL+AEPU vs AEPU-administered animals

CCCCC/C=C\C/C=C\C/C=C\CC1OC1CCCC(=O)OC (stereo not shown) [5,6 EET-me]
IC50 (BZD (peripheral)): 12 µM
IC50 (Cannabinoid CB2; [4]): 20 µM
IC50 (Dopamine D3): > 100 µM
IC50 (Neurokinin NK2): 36 µM

CCCCC/C=C\C/C=C\C/C=C\CC1OC1CCCC(=O)O (stereo not shown) [5,6-EET]
inhibition of binding of [3H]PK 11195 (FIG. 1) (BZD (peripheral)): completely inhibit
% Inhibition of Control Specific Binding (BZD (peripheral)): 27%
% Inhibition of Control Specific Binding (Cannabinoid CB2; second round): 25%
% Inhibition of Control Specific Binding (Dopamine D3): 18%
% Inhibition of Control Specific Binding (Neurokinin NK2): 25%

CCCCC/C=C\C/C=C\CC1OC1C/C=C\CCCC(=O)OC (stereo not shown) [8,9 EET-me]
IC50 (BZD (peripheral)): > 100 µM
IC50 (Cannabinoid CB2; [4]): > 100 µM
IC50 (Dopamine D3): > 100 µM
IC50 (Neurokinin NK2): > 100 µM

CCCCC/C=C\C/C=C\CC1OC1C/C=C\CCCC(=O)O (stereo not shown) [8,9-EET]
% Inhibition of Control Specific Binding (BZD (peripheral)): 11%
% Inhibition of Control Specific Binding (Cannabinoid CB2; second round): −2%
% Inhibition of Control Specific Binding (Dopamine D3): 9%
% Inhibition of Control Specific Binding (Neurokinin NK2): 10%

CCCCC/C=C\CC1OC1C/C=C\C/C=C\CCCC(=O)OC (stereo not shown) [11,12 EET-me]
IC50 (BZD (peripheral)): 140 µM
IC50 (Cannabinoid CB2; [4]): > 100 µM
IC50 (Dopamine D3): > 100 µM
IC50 (Neurokinin NK2): > 100 µM

CCCCC/C=C\C[C@H]1O[C@H]1C/C=C\C/C=C\CCCC(=O)O [11,12-EET]
inhibition of binding of [3H]PK 11195 (FIG. 1) (BZD (peripheral)): completely inhibit
% Inhibition of Control Specific Binding (BZD (peripheral)): 28%
% Inhibition of Control Specific Binding (Cannabinoid CB2; second round): 3%
% Inhibition of Control Specific Binding (Dopamine D3): 6%
% Inhibition of Control Specific Binding (Neurokinin NK2): 1%

CCCCCC1OC1C/C=C\C/C=C\C/C=C\CCCC(=O)OC (stereo not shown) [14,15 EET-me]
IC50 (BZD (peripheral)): 12 µM
IC50 (Cannabinoid CB2; [4]): > 100 µM
IC50 (Dopamine D3): > 100 µM
IC50 (Neurokinin NK2): > 100 µM

CCCCCC1OC1C/C=C\C/C=C\C/C=C\CCCC(=O)O (stereo not shown) [14,15-EET]
inhibition of binding of [3H]PK 11195 (FIG. 1) (BZD (peripheral)): completely inhibit
% Inhibition of Control Specific Binding (BZD (peripheral)): 45%
% Inhibition of Control Specific Binding (Cannabinoid CB2; second round): 5%
% Inhibition of Control Specific Binding (Dopamine D3): 10%
% Inhibition of Control Specific Binding (Neurokinin NK2): 8%

CCC1(c2ccc(N)cc2)CCC(=O)NC1=O (stereo not shown) [AGL]
effect on response to LPS administration [1]: do not they modify
effect on baseline TWL response [1]: no impact
effect on the antihyperalgesic action of sEHI AEPU [1]: completely blocked; also recorded: clearly hyperalgesic
levels of DHETs [2, 5]: increased
levels of EETs [2, 5]: significantly reduced
PGE2 levels ([2]; AGL+LPS+AEPU vs AEPU+LPS or LPS only (FIG. 3)): significantly lower

Cc1c(C(=O)NN2CCCCC2)nn(-c2ccc(Cl)cc2Cl)c1-c1ccc(I)cc1 [AM251, N-(piperidin-1-yl)-5-(4-iodophenyl)-1-(2,4-dichlorophenyl)-4-methy 1-1H-pyrazole-3-carboxamide]
effect on sEHI-elicited analgesia [1]: did not block

COc1ccc(C(=O)c2c(C)n(CCN3CCOCC3)c3cc(I)ccc23)cc1 [AM630, iodopravadoline]
effect on sEHI-elicited analgesia [1]: completely blocked

CN1CCCCC1Cn1cc(C(=O)c2cc([N+](=O)[O-])ccc2I)c2ccccc21 (stereo not shown) [AM1241]
selectivity for CB2 over CB1 (CB2 over CB1): 340 fold

CCCCOC(=O)CCCCCCCCCCCNC(=O)NC12CC3CC(CC(C3)C1)C2 [AUDA-be, 12-(3-Adamantan-1-yl-ureido)dodecanoic acid butyl ester]
attenuation of LPS-elicited thermal hyperalgesia ([1]; topical administration): prophylactic effect
effect on CAR induced thermal hyperalgesia [3]: blocked CAR induced local thermal hyperalgesia effectively; also recorded: effective therapeutically in reversing thermal hyperalgesia

CC(C)(C)NC(=O)[C@H]1CC[C@H]2[C@@H]3CC[C@H]4NC(=O)C=C[C@]4(C)[C@H]3CC[C@]12C [Finasteride]
effect on response to LPS administration [1]: do not they modify
effect on baseline TWL response [1]: no impact
effect on the antihyperalgesic action of sEHI AEPU [1]: blocked

Cc1c(C(=O)c2cccc3ccccc23)c2cccc3c2n1C(CN1CCOCC1)CC3=O (stereo not shown) [WIN55212-2, 4,5-dihydro-2-methyl-4(4-morpholinylmethyl)-1-(1-naphthalenylcarbonyl)-6H-pyrrolo[3,2,1ij]quinolin-6-one, reference compound]
IC50 (Cannabinoid CB2; reference compound, first round, read-out: IC50 Ref (affinity of reference compound)): 0.0076 µM
IC50 (Cannabinoid CB2; reference compound, second round, read-out: IC50 Ref): 0.0027 µM

CC#C[C@]1(O)CC[C@H]2[C@@H]3CCC4=CC(=O)CCC4=C3[C@@H](c3ccc(N(C)C)cc3)C[C@@]21C [mifepristone]
effect on the antihyperalgesic action of sEHI AEPU [1]: did not have any impact

CC1(C)NC(=O)N(c2ccc([N+](=O)[O-])c(C(F)(F)F)c2)C1=O [nilutamide]
effect on the antihyperalgesic action of sEHI AEPU [1]: did not have any impact

CC(=O)S[C@@H]1CC2=CC(=O)CC[C@]2(C)[C@H]2CC[C@@]3(C)[C@@H](CC[C@@]34CCC(=O)O4)[C@H]12 [spironoloactone]
effect on the antihyperalgesic action of sEHI AEPU [1]: did not have any impact

CC/C(=C(\c1ccccc1)c1ccc(OCCN(C)C)cc1)c1ccccc1 [tamoxifen]
effect on the antihyperalgesic action of sEHI AEPU [1]: did not have any impact
